Data as given in patent US11945973B2, “Ionic liquid-based coating and method of making articles coated with the same” (THE HONG KONG UNIVERSITY OF SCIENCE AND TECHNOLOGY, priority 2019, dated 2024).

What was measured:
[1] = test system: A549 lung epithelial cells
Experimental: A549 lung epithelial cells were grown in 25 cm^2 flasks with Dulbecco's modified Eagle's medium (DMEM) supplemented with 10% fetal bovine serum, 100 U/ml streptomycin, and 50 U/ml penicillin at 37° C. in a humidified atmosphere with 5% CO2. A subculture of confluent monolayers was carried out using 0.05% trypsin, 0.53 mmol/l ethylenediaminetetraacetic acid in calcium and magnesium-free Hanks balanced salt solution (HBSS). […] For the 3-(4,5-dimethylthiazol-2-yl)-2,5-diphenyltetrazolium bromide (MTT) assay, cells were plated in 96-well microplates at 2×10^5 cell/well for 6 hours, then the media were gently changed to remove non-adherent cells. The plates were used for assays after 24 hours. […] The media were replaced with 100 μl of dimethyl sulfoxide for 20 minutes, and the absorbances at 595 nm were determined using a microplate reader. […] The inhibition rate, I, is given by [formula] where C is the absorbance of the control group containing the cell solution and MTT, which indicates the number of maximum living cells, S is the absorbance of the sample group containing the cell solution, ionic liquids and MTT, which indicates the number of living cells in the ionic liquids, and B is the absorbance of the blank group containing only pure culture media and MTT, which is set reduce interference by the natural environment.

[2] = test system: E. coli; assay: Inhibition zone on agar plates; format: cell-based; details: liquid applied to agar plate
Experimental: A bacterial suspension (0.1 ml) was spread onto tryptone soya agar plates. HEPA filters with ionic liquid coatings were cut into small pieces. They were then placed on the center of plates spread by bacteria. The plates were incubated at room temperature for 48 hours.

Row | Structure (SMILES) | cytotoxicity (inhibition rate) for A549 lung epithelial cells [1] | inhibition zone for E. coli [2]
1 | CCn1cc[n+](C)c1.F[B-](F)(F)F [EMIM-BF4, 1-ethyl-3-methylimidazolium tetrafluoroborate] | lowest cytotoxicity | obvious inhibition
2 | CCO [ethanol, reference compound] |  | no clear inhibition zones
